The text below walks through data of PubChem BioAssay (NCI).

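Compound exposure: 48 hours, 5 concentrations, 96-well plates. TGI denotes the concentration required for complete inhibition of growth.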 A value given as a limit tells only on which side of the number the result lay.

Assay in all cases: DTP human tumour cell line panel, 48 h
The test system of assay [1] is HL-60(TB) leukemia.
Assay [2] concerns SN12C renal.
For assay [3], the system named is A549 NSCLC.
Assay [4] relates to RPMI-8226 leukemia.
The test system of assay [5] is SF-539 CNS.
In assay [6] the test system is CCRF-CEM leukemia.
Assay [7] deals with SNB-75 CNS.
Assay [8] concerns EKVX NSCLC.
Assay [9] deals with NCI/ADR-RES ovarian.
The test system of assay [10] is OVCAR-8 ovarian.

Consider `COc1ccc(C2c3cc4c(cc3OC(NCCO)C2C)OCO4)cc1` (configuration not stated), for which the concentration for total growth inhibition (TGI) in assay [1] was 43.3 µM; in assay [2], 71.7 µM; in [3] it was 68.8 µM; in assay [4], 55.3 µM; in assay [5], 40.5 µM; in [6], 52.4 µM. Also, the figures for the concentration for total growth inhibition (TGI) in assay [7] and in assay [8] were 69.5 µM and 92.5 µM, respectively.
In the case of `C[C@]12CC[C@@H]3c4ccc(O)cc4CC[C@H]3[C@@H]1C/C(=C\c1ccc(C#N)cc1)C2=O`, the TGI in [2], in assay [9], in assay [3], in assay [4], in assay [10] and in assay [5] was greater than 100 µM each time. Further, the TGI in [6], in assay [7] and in assay [8] was greater than 100 µM each time.
On to `CC(C)C1=C(O)C2=C(C(=O)C1=O)C1(C)CCCC(C)(C)C1C(O)C2OC=O` (configuration not stated), for which the total growth inhibition concentration (TGI) came out at 18.7 µM in [1]; 23.2 µM in assay [2]; 35.8 µM in [3]; 6.9 µM in assay [4]; 20.1 µM in assay [10]; 31.5 µM in assay [5]. Further, the figures for the TGI in [6], in [7] and in assay [8] were 8.47 µM, 23.7 µM and 21.7 µM, respectively.
For the compound `COC1C(O)C(O[C@H]2CC[C@@]3(C)C(CC[C@@H]4[C@@H]3CC[C@]3(C)[C@@H](C(C)OC5OC(CO)C(O)C(O)C5O)CC[C@]43O)C2)OC(C)C1OC1OC(CO)C(O)C(O)C1O` (some centres not stated), the TGI in assay [2], in assay [9], in assay [3], in [4], in assay [10] and in [5] was greater than 100 µM throughout. The concentration for total growth inhibition (TGI) in assay [6], in assay [7] and in assay [8] was greater than 100 µM throughout.
As for `CC(C)[Si](OC/C(=C/COC(C)(C)C)[C@H]1CC=C(C(=O)c2ccccc2N2CN(C)C(=O)N(C)C2)C1)(C(C)C)C(C)C`, the total growth inhibition concentration (TGI) is 24.9 µM in assay [2]; 32.7 µM in assay [9]; 23 µM in [3]; 15.6 µM in [4]; 18.1 µM in [10]; 17.8 µM in assay [5]. Besides, the TGI in assay [6] was greater than 100 µM; in assay [7], 28.7 µM; in [8], 30.3 µM.
Take `COc1ccc(NC(C)c2ccncc2)cc1` (configuration not stated): the TGI in assay [2], in assay [9], in [3], in assay [4], in assay [10] and in assay [5] was greater than 100 µM each time. In addition, the TGI in [6], in assay [7] and in [8] was greater than 100 µM throughout.
For `O=C1C=CC(=O)C(CNc2ccc(C(=O)OCc3ccccc3)cc2)=C1`, the concentration for total growth inhibition (TGI) is 19.3 µM in [2]; 23.5 µM in [9]; 32.1 µM in [3]; greater than 21 µM in assay [4]; 16.8 µM in assay [10]; 7.29 µM in assay [5]. Moreover, the concentration for total growth inhibition (TGI) in [7] was determined as 18.4 µM; in assay [8], 23.7 µM.
Turning to `CCN(CCCl)c1cc(CN(C)C)cc(NC(=O)c2ccc(C(=O)Nc3cccc(CN(C)C)c3)cc2)c1`, the TGI in [1] is 0.444 µM; in [2] it was 10.6 µM; in assay [9], greater than 100 µM; in assay [3] it was 14.5 µM; in assay [4], 8.73 µM; in assay [10], 12.8 µM. Moreover, the figures for the TGI in [5], in assay [6] and in assay [7] were 2.99 µM, 0.669 µM and 3.18 µM, respectively.
In the case of `COc1cccc2c1OCC1Cc3ccccc3OC21` (configuration not stated), the total growth inhibition concentration (TGI) in [2] was 70.1 µM; in assay [9], greater than 100 µM; in assay [3], greater than 100 µM; in [4], greater than 100 µM; in assay [10], greater than 100 µM; in [5] it was greater than 100 µM. The total growth inhibition concentration (TGI) in assay [6] and in assay [8] was greater than 100 µM in each case.
Take `O=C1c2cccc(O)c2C(=O)c2c(OC3OC(CO)C(O)C(O)C3O)cccc21` (configuration not stated): the TGI in [2] is greater than 100 µM; in [9], 68.4 µM; in [3], greater than 100 µM; in assay [4] it was greater than 100 µM; in assay [10], greater than 100 µM; in assay [5] it was 58.1 µM. Moreover, the values for the concentration for total growth inhibition (TGI) in assay [7] and in assay [8] were 54.6 µM and greater than 100 µM, respectively.
As to `C=CC(=O)N1C/C(=C\c2ccc(Cl)cc2)C(=O)/C(=C/c2ccc(Cl)cc2)C1`, the total growth inhibition concentration (TGI) was 0.704 µM in assay [2]; 9.41 µM in [9]; 1.64 µM in assay [3]; 3.84 µM in assay [10]; 0.419 µM in assay [5]; 1.64 µM in assay [7]. Moreover, the TGI in [8] came out at 4.72 µM.
Regarding `O=C1CS(=O)(=O)C(c2cccc(Oc3ccccc3)c2)N1c1cc(Cl)ccc1Cl` (configuration not stated), the total growth inhibition concentration (TGI) was 81.8 µM in assay [1]; 39 µM in assay [2]; 77.8 µM in assay [9]; greater than 100 µM in assay [3]; 43.9 µM in assay [10]; 44.6 µM in [5]. The TGI in assay [6] is greater than 100 µM; in [7], 33.1 µM; in assay [8] it was greater than 100 µM.
On to `COc1cc(C2c3cc4c(cc3[C@@H](Nc3ccc5c(c3)OCO5)C3COC(=O)[C@H]23)OCO4)cc(OC)c1O` (some centres not stated), for which the total growth inhibition concentration (TGI) in assay [1] was 0.977 µM; in [9], 41.6 µM; in [3], 2.56 µM; in assay [4], 8.59 µM; in assay [10], greater than 20.5 µM; in [5], 2.41 µM. Besides, the TGI in [6] came to 5.37 µM; in assay [8] it was 16.3 µM.
For the compound `O=[N+]([O-])c1ccc2c(c1)c(N=NC(=S)Nc1ccc(Cl)cc1)c(O)n2CN1CCOCC1`, the TGI in assay [1] worked out at 11.5 µM; in assay [2], 15.7 µM; in assay [9], 5.9 µM; in assay [3] it was 20.8 µM; in assay [10] it was 23.4 µM; in assay [5] it was 26.4 µM. Also, the results for the TGI in assay [6] and in [7] were 28 µM and 25.8 µM, respectively.
`O=C(NN1C(=O)CSC1c1cccc(F)c1)c1ccncc1` (configuration not stated): the TGI in assay [1], in assay [2], in assay [3], in [4], in [10] and in [5] was greater than 100 µM throughout. Further, the concentration for total growth inhibition (TGI) in assay [6], in assay [7] and in assay [8] was greater than 100 µM each time.
